Experimental findings from patent US20250171431A1, “HETEROCYCLIC INHIBITORS OF IGF-1R FOR TREATMENT OF DISEASE” (HORIZON THERAPEUTICS IRELAND DAC, priority 2023, published 2025) are described below.

For the assay, the target named is IGF-1R (Homo sapiens (Human), UniProt P08069). The assay is described as follows: Example B-1: IGF-1R Assay (PC3 cells, IGF1 stimulation, AlphaLISA). Type of assay: cell-based. The following applies: 200 ng/mL IGF1 stimulation, read-out: Biological Activity against IGF-1R IC50. In short, it runs like this: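 Readout is AlphaLISA signal from lysed PC3 cells, expressed as % inhibition versus vehicle and EC80 controls and banded by IC50. Before lysis, the cells were starved of serum for 2 h, exposed to 3× serially diluted compound for 2 h, and stimulated for 30 min with 200 ng/mL IGF1 (final).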
Sequence of IGF-1R (P08069 31-1367): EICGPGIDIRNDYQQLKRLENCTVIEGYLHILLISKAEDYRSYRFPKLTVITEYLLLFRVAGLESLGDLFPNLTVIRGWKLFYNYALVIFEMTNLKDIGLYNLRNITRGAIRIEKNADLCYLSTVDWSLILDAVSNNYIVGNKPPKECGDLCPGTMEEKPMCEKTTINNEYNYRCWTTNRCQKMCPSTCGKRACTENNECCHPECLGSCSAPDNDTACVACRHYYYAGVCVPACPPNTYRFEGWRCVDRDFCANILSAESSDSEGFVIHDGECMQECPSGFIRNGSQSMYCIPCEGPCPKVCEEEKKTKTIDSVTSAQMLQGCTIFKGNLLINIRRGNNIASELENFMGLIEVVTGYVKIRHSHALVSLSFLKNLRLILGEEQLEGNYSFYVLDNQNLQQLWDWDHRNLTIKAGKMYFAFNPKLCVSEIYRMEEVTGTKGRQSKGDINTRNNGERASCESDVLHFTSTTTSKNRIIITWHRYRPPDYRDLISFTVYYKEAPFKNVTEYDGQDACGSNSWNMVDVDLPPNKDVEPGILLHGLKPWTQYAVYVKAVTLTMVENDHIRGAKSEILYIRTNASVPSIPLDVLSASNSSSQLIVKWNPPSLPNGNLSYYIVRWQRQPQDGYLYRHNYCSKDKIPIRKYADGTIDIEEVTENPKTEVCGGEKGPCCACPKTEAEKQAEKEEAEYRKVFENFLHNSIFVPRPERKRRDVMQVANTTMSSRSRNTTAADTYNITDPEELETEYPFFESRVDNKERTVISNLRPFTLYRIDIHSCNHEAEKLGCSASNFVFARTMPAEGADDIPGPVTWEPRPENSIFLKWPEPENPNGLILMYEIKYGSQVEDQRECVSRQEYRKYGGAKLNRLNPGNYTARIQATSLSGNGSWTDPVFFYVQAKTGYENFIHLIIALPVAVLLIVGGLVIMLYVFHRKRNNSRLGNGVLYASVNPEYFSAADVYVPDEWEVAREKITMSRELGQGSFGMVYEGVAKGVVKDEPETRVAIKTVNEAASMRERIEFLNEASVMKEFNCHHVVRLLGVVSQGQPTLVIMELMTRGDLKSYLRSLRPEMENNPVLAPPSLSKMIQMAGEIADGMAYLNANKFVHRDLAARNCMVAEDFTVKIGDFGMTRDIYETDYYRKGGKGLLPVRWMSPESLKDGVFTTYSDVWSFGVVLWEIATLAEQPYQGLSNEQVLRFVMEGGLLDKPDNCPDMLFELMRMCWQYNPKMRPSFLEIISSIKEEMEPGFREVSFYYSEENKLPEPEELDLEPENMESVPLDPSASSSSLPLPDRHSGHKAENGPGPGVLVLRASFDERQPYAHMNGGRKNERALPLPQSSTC

In general, IC50 refers to the concentration needed to halve the response being measured.

With `COc1cc(Nc2nccc(Nc3cnc4ccc(Cl)cc4c3)n2)ccc1O[C@H]1CC[C@@H](N(C)C)CC1` [Compound 286, 4-(6-chloro-3-quinolylamino)-2-{3-methoxy-4-[(1s,4s)-4-(dimethylamino)cyclohexyloxy]phenylamino}pyrimidine], the IC50 was not above 500 nM.
For the compound `COc1cc(Nc2nccc(Nc3ccc4c(c3)CCC(=O)N4)n2)ccc1OCCCN1CCCCC1` [Compound 448, 6-{2-[3-methoxy-4-(3-piperidinopropoxy)phenylamino]-4-pyrimidinylamino}-3,4-dihydro-2(1H)-quinolinone], the IC50 was not above 500 nM.
Under `COc1cc(Nc2nccc(Nc3cnc4ccc(Cl)cc4c3)n2)ccc1N1CCOCC1` [Compound 462, 4-(6-chloro-3-quinolylamino)-2-(3-methoxy-4-morpholinophenylamino) pyrimidine] stands not above 500 nM; under `COc1cc(Nc2nccc(Nc3cnc4c(Cl)cccc4c3)n2)ccc1OCCCN1CCCCC1` [Compound 430, 4-(8-chloro-3-quinolylamino)-2-[3-methoxy-4-(3-piperidinopropoxy)phenylamino]pyrimidine], not above 500 nM.
The figure for `COc1cc(Nc2nccc(Nc3cnc4c(c3)C3CCC4C3)n2)ccc1O[C@H]1C[C@@H](N(C)C)C1` (stereo partly shown) [Compound 321, 4-{3-azatricyclo[6.2.1.02,7]undeca-2(7),3,5-trien-5-ylamino}-2-{3-methoxy-4-[(1s,3s)-3-(dimethylamino)cyclobutoxy]phenylamino}pyrimidine] is not above 500 nM; for `COc1cc(Nc2nccc(Nc3cnc4cc(Br)cnc4c3)n2)ccc1OC1CN(C)C1` [Compound 292, 4-(7-bromo-1,5-diaza-3-naphthylamino)-2-[3-methoxy-4-(1-methyl-3-azetidinyloxy)phenylamino] pyrimidine] it is 2000 to 10000 nM; for `COc1cc(Nc2nccc(Nc3cnc4c(c3)C3CCC4CC3)n2)ccc1O[C@H]1C[C@H](N(C)C)C1` [Compound 75, 4-{3-azatricyclo[6.2.2.02,7]dodeca-2(7),3,5-trien-5-ylamino}-2-{3-methoxy-4-[(1r,3r)-3-(dimethylamino)cyclobutoxy]phenylamino}pyrimidine] it is not above 500 nM.
Under `COc1cc(Nc2nccc(Nc3cnc4ccc(Cl)cc4c3)n2)cnc1N1CCN(C)C(C)(C)C1` [Compound 480, 4-(6-chloro-3-quinolylamino)-2-[6-(3,3-dimethyl-4-methyl-1-piperazinyl)-5-methoxy-3-pyridylamino] pyrimidine] stands not above 500 nM; under `CN(C)[C@H]1C[C@H](Oc2ccc(Nc3nccc(Nc4cnc5ccccc5c4)n3)cc2)C1` [Compound 27, 4-(3-quinolylamino)-2-{p-[(1r,3r)-3-(dimethylamino)cyclobutoxy]phenylamino}pyrimidine], not above 500 nM; under `CN1CC2(Cc3ccc(Nc4nccc(Nc5cc6cccc(F)c6[nH]c5=O)n4)cc3O2)C1` [Compound 45, 8-fluoro-3-{2-(1-methyl-3′H-spiro[azetidine-3,2′-[1]benzofuran]-6′-ylamino)-4-pyrimidinylamino}-1,2-dihydro-2-quinolinone], not above 500 nM.
As for `Fc1cnc(Nc2ccc(O[C@H]3C[C@H](N4CCOCC4)C3)cc2)nc1Nc1cnc2ccccc2c1` [Compound 327, 5-fluoro-4-(3-quinolylamino)-2-{p-[(1r,3r)-3-morpholinocyclobutoxy]phenylamino}pyrimidine], the IC50 is not above 500 nM.
Under `COc1cc(Nc2nccc(Nc3cnc4c(c3)SC(C)CC4)n2)ccc1OCCCN1CCCCC1` (stereo not shown) [Compound 61, 2-[3-methoxy-4-(3-piperidinopropoxy)phenylamino]-4-(2-methyl-3,4-dihydro-2H-1-thia-5-azanaphth-7-ylamino)pyrimidine] stands not above 500 nM.
Under `c1ccc2ncc(Nc3ccnc(Nc4ccc(OCCCN5CCCCC5)c(OCC5CCOCC5)c4)n3)cc2c1` [Compound 418] stands not above 500 nM.
